Reference: patent publication US10947213B1 (Merck Patent GmbH, priority 2015, dated 2021)

Each compound was assayed against T1, TLR7/NFKb HEK cells (Homo sapiens, UniProt Q9NYK1) (assay: HEK Cell Assay (TLR7/NFKb reporter, Steady-Glo luciferase readout)). Conditions: 30 min compound preincubation, then R*48 agonist for 5 hours, read-out: Potency.
T1 construct: expressed in transfected cells; host or cells: HEK cells (TLR7/NFKb reporter line)
T1 sequence (Q9NYK1 27-1049): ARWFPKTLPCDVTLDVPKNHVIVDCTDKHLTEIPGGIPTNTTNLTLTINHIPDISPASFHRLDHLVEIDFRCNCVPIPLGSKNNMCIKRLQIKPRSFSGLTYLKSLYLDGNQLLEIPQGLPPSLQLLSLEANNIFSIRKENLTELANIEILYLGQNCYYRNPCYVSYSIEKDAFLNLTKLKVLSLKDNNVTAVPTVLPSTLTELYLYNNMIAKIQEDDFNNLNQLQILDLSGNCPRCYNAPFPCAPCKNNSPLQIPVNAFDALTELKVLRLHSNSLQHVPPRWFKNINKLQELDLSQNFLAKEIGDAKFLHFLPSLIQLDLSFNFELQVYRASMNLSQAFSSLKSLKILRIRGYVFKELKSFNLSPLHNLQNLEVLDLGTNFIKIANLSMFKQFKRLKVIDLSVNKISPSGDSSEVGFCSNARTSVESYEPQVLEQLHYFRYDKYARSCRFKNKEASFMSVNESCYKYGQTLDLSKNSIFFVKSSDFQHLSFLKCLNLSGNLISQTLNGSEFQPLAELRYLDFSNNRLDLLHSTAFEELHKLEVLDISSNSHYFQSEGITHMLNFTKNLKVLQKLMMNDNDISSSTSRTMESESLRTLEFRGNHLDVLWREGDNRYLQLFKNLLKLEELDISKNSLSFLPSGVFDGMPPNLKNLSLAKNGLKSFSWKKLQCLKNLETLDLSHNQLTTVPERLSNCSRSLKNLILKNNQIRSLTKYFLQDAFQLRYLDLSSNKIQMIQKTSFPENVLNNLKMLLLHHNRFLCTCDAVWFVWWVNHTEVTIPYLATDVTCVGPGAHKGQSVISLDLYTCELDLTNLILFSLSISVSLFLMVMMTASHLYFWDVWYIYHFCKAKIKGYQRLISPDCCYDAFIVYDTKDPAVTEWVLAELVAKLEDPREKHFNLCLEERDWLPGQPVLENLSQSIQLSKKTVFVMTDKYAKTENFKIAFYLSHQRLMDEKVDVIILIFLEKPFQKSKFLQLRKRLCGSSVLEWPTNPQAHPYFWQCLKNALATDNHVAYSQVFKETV
Format: cell-based
Procedure, shortened: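 Steady-Glo luminescence after 5 h stimulation with R*48 agonist, following 30 min compound preincubation. Assay run in HEK cells carrying a TLR7/NFKb luciferase reporter, plated at 5000 cells/well and grown 24 h at 37° C (10% CO2) before treatment.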

Structure (SMILES)	IC50 [nM]
CCN(CC)CCNCC1CCN(c2cc(C)nc3cc(F)ccc23)CC1 [Compound 386, N,N-Diethyl-N′-[1-(7-fluoro-2-methyl-quinolin-4-yl)-piperidin-4-ylmethyl]-ethane-1,2-diamine]	1000 to 10000
FC(F)(F)c1ccc2nccc(N3CCC(CNCCN4CCCCC4)CC3)c2c1 [Compound 387, (2-Piperidin-1-yl-ethyl)-[1-(6-trifluoromethyl-quinolin-4-yl)-piperidin-4-ylmethyl]-amine]	1000 to 10000
O=C(CN1CCCCC1)NCC1CCN(c2ccnc3nccnc23)CC1 [Compound 388, 2-Piperidin-1-yl-N-(1-pyrido[2,3-b]pyrazin-8-yl-piperidin-4-ylmethyl)-acetamide]	1000 to 10000
CCN(CC)CCNCC1CCN(c2ccnc3cc(C)ccc23)CC1 [Compound 389, N,N-Diethyl-N′-[1-(7-methyl-quinolin-4-yl)-piperidin-4-ylmethyl]-ethane-1,2-diamine]	1000 to 10000
CCN(CC)CC(=O)NC1CCN(c2ccnc3nccnc23)CC1 [Compound 390, 2-Diethylamino-N-(1-pyrido[2,3-b]pyrazin-8-yl-piperidin-4-yl)-acetamide]	1000 to 10000
COc1ccc(C(=O)NCC2CCN(c3ccnc4nccnc34)CC2)cc1OC [Compound 391, 3,4-Dimethoxy-N-(1-pyrido[2,3-b]pyrazin-8-yl-piperidin-4-ylmethyl)-benzamide]	> 10000
O=C(NCC1CCN(c2ccnc3nccnc23)CC1)c1ccccn1 [Compound 392, Pyridine-2-carboxylic acid (1-pyrido[2,3-b]pyrazin-8-yl-piperidin-4-ylmethyl)-amide]	> 10000
C[C@@H]1CN(c2ccc(C#N)c3ncncc23)C[C@H](C)O1 [Compound 393, cis-5-(2,6-Dimethyl-morpholin-4-yl)-quinazoline-8-carbonitrile]	1000 to 10000
CN(C)CC(=O)NCC1CCN(c2ccnc3nccnc23)CC1 [Compound 394, 2-Dimethylamino-N-(1-pyrido[2,3-b]pyrazin-8-yl-piperidin-4-ylmethyl)-acetamide]	1000 to 10000
CCN(CC)CC(=O)NCC1CCN(c2ccc(C#N)c3ncncc23)CC1 [Compound 395, N-[1-(8-Cyano-quinazolin-5-yl)-piperidin-4-ylmethyl]-2-diethylamino-acetamide]	1000 to 10000
CCN(CC)CCC(=O)NC1CCN(c2ccnc3nccnc23)CC1 [Compound 396, 3-Diethylamino-N-(1-pyrido[2,3-b]pyrazin-8-yl-piperidin-4-yl)-propionamide]	> 10000
CCN(CC)CCNC(=O)C1CCN(c2ccc(C#N)c3ncncc23)CC1 [Compound 397, 1-(8-Cyano-quinazolin-5-yl)-piperidine-4-carboxylic acid (2-diethylamino-ethyl)-amide]	1000 to 10000
CCN(CC)CC(=O)NCC1CCN(c2ccc(C#N)c3ncccc23)CC1 [Compound 398, N-[1-(8-Cyano-quinolin-5-yl)-piperidin-4-ylmethyl]-2-diethylamino-acetamide]	< 1000
CC(C)(C)CC(=O)NCC1CCN(c2ccnc3nccnc23)CC1 [Compound 399, 3,3-Dimethyl-N-(1-pyrido[2,3-b]pyrazin-8-yl-piperidin-4-ylmethyl)-butyramide]	> 10000
O=C(CCCN1CCCCC1)N1CCN(c2ccnc3nccnc23)CC1 [Compound 400, 4-Piperidin-1-yl-1-(4-pyrido[2,3-b]pyrazin-8-yl-piperazin-1-yl)-butan-1-one]	> 10000
CCN(CC)CCNCC1CCN(c2ccc(C#N)c3ncccc23)CC1 [Compound 401, 5-{4-[(2-Diethylamino-ethylamino)-methyl]-piperidin-1-yl}-quinoline-8-carbonitrile]	1000 to 10000
O=C(CN1CCC1)NCC1CCN(c2ccnc3nccnc23)CC1 [Compound 402, 2-Azetidin-1-yl-N-(1-pyrido[2,3-b]pyrazin-8-yl-piperidin-4-ylmethyl)-acetamide]	1000 to 10000
N#Cc1ccc(N2CCC(C(=O)NCCN3CCCCC3)CC2)c2cccnc12 [Compound 403, 1-(8-Cyano-quinolin-5-yl)-piperidine-4-carboxylic acid (2-piperidin-1-yl-ethyl)-amide]	< 1000

Structure (SMILES)	IC50 [nM]
COc1cccc(NCC(=O)NCC2CCN(c3ccnc4nccnc34)CC2)c1 [Compound 404, 2-(3-Methoxy-phenylamino)-N-(1-pyrido[2,3-b]pyrazin-8-yl-piperidin-4-ylmethyl)-acetamide]	> 10000
CCN(CC)CC(=O)N(C)CC1CCN(c2ccnc3nccnc23)CC1 [Compound 405, 2-Diethylamino-N-methyl-N-(1-pyrido[2,3-b]pyrazin-8-yl-piperidin-4-ylmethyl)-acetamide]	1000 to 10000
CC(C)(C)NCC(=O)NCC1CCN(c2ccnc3nccnc23)CC1 [Compound 406, 2-tert-Butylamino-N-(1-pyrido[2,3-b]pyrazin-8-yl-piperidin-4-ylmethyl)-acetamide]	1000 to 10000
CCN(CC)CCNC(=O)C1CCN(c2ccc(C#N)c3ncccc23)CC1 [Compound 407, 1-(8-Cyano-quinolin-5-yl)-piperidine-4-carboxylic acid (2-diethylamino-ethyl)-amide]	< 1000
CCN(C)CC(=O)NCC1CCN(c2ccnc3nccnc23)CC1 [Compound 408, 2-(Ethyl-methyl-amino)-N-(1-pyrido[2,3-b]pyrazin-8-yl-piperidin-4-ylmethyl)-acetamide]	1000 to 10000
N#Cc1ccc(N2CCC(CNC(=O)CN3CCCCC3)CC2)c2cccnc12 [Compound 409, N-[1-(8-Cyano-quinolin-5-yl)-piperidin-4-ylmethyl]-2-piperidin-1-yl-acetamide]	< 1000
CCN(C)CC(=O)NCC1CCN(c2ccc(C#N)c3ncccc23)CC1 [Compound 410, N-[1-(8-Cyano-quinolin-5-yl)-piperidin-4-ylmethyl]-2-(ethyl-methyl-amino)-acetamide]	< 1000
CN1CCCC1C(=O)NCC1CCN(c2ccnc3nccnc23)CC1 (centres unmarked) [Compound 411, 1-Methyl-pyrrolidine-2-carboxylic acid (1-pyrido[2,3-b]pyrazin-8-yl-piperidin-4-ylmethyl)-amide]	1000 to 10000
CC(C)(C)OCC(=O)NCC1CCN(c2ccc(C#N)c3ncccc23)CC1 [Compound 412, 2-tert-Butoxy-N-[1-(8-cyano-quinolin-5-yl)-piperidin-4-ylmethyl]-acetamide]	> 10000
CC(C)(C)NCC(=O)NCC1CCN(c2ccc(C#N)c3ncccc23)CC1 [Compound 413, 2-tert-Butylamino-N-[1-(8-cyano-quinolin-5-yl)-piperidin-4-ylmethyl]-acetamide]	< 1000
CC1CCCC(C)N1CCNC(=O)C1CCN(c2ccc(C#N)c3ncccc23)CC1 (centres unmarked) [Compound 414, 1-(8-Cyano-quinolin-5-yl)-piperidine-4-carboxylic Acid [2-(2,6-dimethyl-piperidin-1-yl)-ethyl]-amide]	< 1000
CN(C)CCNC(=O)C1CCN(c2ccc(C#N)c3ncccc23)CC1 [Compound 415, 1-(8-Cyano-quinolin-5-yl)-piperidine-4-carboxylic Acid (2-dimethylamino-ethyl)-amide]	< 1000
CCN(C)CCNC(=O)C1CCN(c2ccc(C#N)c3ncccc23)CC1 [Compound 416, 1-(8-Cyano-quinolin-5-yl)-piperidine-4-carboxylic Acid [2-(ethyl-methyl-amino)-ethyl]-amide]	< 1000
N#Cc1ccc(N2CCC(CNC(=O)CN3CCC3)CC2)c2cccnc12 [Compound 417, 2-Azetidin-1-yl-N-[1-(8-cyano-quinolin-5-yl)-piperidin-4-ylmethyl]-acetamide]	< 1000
CN1CCCC1C(=O)NCC1CCN(c2ccc(C#N)c3ncccc23)CC1 (centres unmarked) [Compound 418, 1-Methyl-pyrrolidine-2-carboxylic acid [1-(8-cyano-quinolin-5-yl)-piperidin-4-ylmethyl]-amide]	< 1000
N#Cc1ccc(N2CCC(C(=O)NCCN3CCOCC3)CC2)c2cccnc12 [Compound 419, 1-(8-Cyano-quinolin-5-yl)-piperidine-4-carboxylic Acid (2-morpholin-4-yl-ethyl)-amide]	1000 to 10000
CC(CN(C)C)NC(=O)C1CCN(c2ccc(C#N)c3ncccc23)CC1 (centres unmarked) [Compound 420, 1-(8-Cyano-quinolin-5-yl)-piperidine-4-carboxylic Acid (2-dimethylamino-1-methyl-ethyl)-amide]	< 1000
